Reference: paper PMC9505538, “P-Glycoprotein (MDR1/ABCB1) Restricts Brain Accumulation of the Novel EGFR Inhibitor EAI045 and Oral Elacridar Coadministration Enhances Its Brain Accumulation and Oral Exposure” (Pharmaceuticals, 2022)

How the values were obtained:
endogenous canine ABCB1 = target: T1, endogenous canine ABCB1 (Canis lupus familiaris, UniProt C0KKU9); test: Transepithelial transport of EAI045 across MDCK-II parental cell layers; assay type: in vitro ADME; conditions: for efflux ratio r (relative transport ratio): EAI045 5 μM
T1 construct: the endogenous canine ABCB1, expressed at low levels in the parental cell line; endogenous in cells; host or cells: MDCK-II parental cells (ECACC 00062107)
Experimental: Transport of EAI045 (5 μM) across epithelia was tested using cell layers of Madin–Darby Canine Kidney (MDCK-II) cells and derived clones expressing hABCB1, hABCG2, or mAbcg2 cDNA. […] In cells overexpressing hABCB1, there was clear transport of EAI045 in the apical direction (r = 5.5, Figure 1C). […] To evaluate the interaction between hABCG2 and mAbcg2 and EAI045, zosuquidar (5 μM) was added to inhibit any endogenous canine ABCB1. In cells overexpressing hABCG2, the BA transport of EAI045 was somewhat increased relative to the AB transport, resulting in an efflux ratio of 1.4 (Figure 1E).
Figure 1 In vitro transepithelial transport of EAI045 (5 μM) using MCDK-II parental cells (A,B) or transduced with human ABCB1 (C,D), human ABCG2 (E,F), or murine Abcg2 (G,H) cDNA. At t = 0 EAI045 was added in the donor compartment (either apical or basolateral). At 1, 2, and 4 h EAI045 was quantified in the acceptor compartment and the cumulative total transported amount per well was plotted (n = 3). Zosuquidar (5 μM) was added to inhibit the human and/or the endogenous ABCB1, while Ko143 (5 μM) was added to inhibit the human or murine ABCG2. r, relative transport ratio. […] Points, mean; bars, SD. TEXT PRINTED IN THE PICTURE: (A) no label printed: Parental: r = 1.7 | (B) no label printed: Parental + Zos.: r = 1.1 | (C) no label printed: hABCB1: r = 5.5 | (D) no label printed: hABCB1 + Zos.: r = 1.3 | (E) no label printed: hABCG2 + Zos.: r = 1.4 | (F) no label printed: hABCG2 + Zos. + Ko143: r = 1.1 | (G) no label printed: mAbcg2 + Zos.: r = 1.8 | (H) no label printed: mAbcg2 + Zos. + Ko143: r = 1.4
Madin–Darby Canine Kidney (MDCK-II) cells (ECACC 00062107) stably transduced with human (h) ABCB1, hABCG2, or mouse (m) Abcg2 cDNA were generated in our institute between 1998 and 2005. […] In short, cells were allowed to grow an intact monolayer in 3 days, which was monitored with transepithelial electrical resistance (TEER) measurements, both before and after the transport phase. […] Proper functionality of these cell lines was monitored by continual testing with a variety of drug substrates.

[1] = mouse, in vivo
Text: Mice (Mus musculus) were bred in the Netherlands Cancer Institute and housed and handled according to institutional guidelines complying with Dutch and EU legislation. Animals used were WT, Abcb1a/1b^-/- [39], Abcg2^-/- [40], Abcb1a/1b;Abcg2^-/- [41], Cyp3a^-/- [42], and Oatp1a/1b^-/- [43] mice of a >99% FVB/N strain background. Homozygous CYP3A4 humanized transgenic mice (Cyp3aXAV) were generated by cross-breeding of transgenic mice with stable human CYP3A4 expression in the liver or intestine, respectively, in a Cyp3a^-/- background. Proper functionality of the knockout and transgenic strains was monitored by regular testing with a variety of drug substrates. All the mice used were between 10 and 15 weeks of age. Animals were kept in a temperature-controlled environment with a 12 h light/12 h dark cycle and received a standard diet (Transbreed, SDS Diets, Technilab-BMI, The Netherlands) and acidified water ad libitum. Depending on the type of experiment, 5 or 6 mice were tested in each experimental group. All experimental animal protocols, including power calculations, were ethically assessed and designed under the nationally approved DEC/CCD project AVD301002016595 (approval date, 10 August 2016) and evaluated and approved by the institutional animal care and use committee (IACUC) of the Netherlands Cancer Institute.
EAI045 was dissolved in dimethyl sulfoxide (DMSO) at a concentration of […], and then diluted with a mixture of polysorbate 80/ethanol (1:1, v/v), and further diluted with 5% (w/v) glucose in water to yield a concentration of 2 mg/mL. Final concentrations for DMSO, polysorbate 80, ethanol, and glucose in the dosing solution were 5%, 2.5%, 2.5%, and 4.5% (v/v/v/w), respectively. Elacridar hydrochloride was dissolved in DMSO at a concentration of 53 mg/mL, then diluted with a mixture of polysorbate 80, ethanol, and water [20:13:67, (v/v/v)] to yield a concentration of 5 mg/mL elacridar. The final oral dose of elacridar was 50 mg/kg body weight. All dosing solutions were prepared freshly on the day of experiment.
To minimize variation in absorption, mice were fasted for about 3 h before EAI045 was administered by gavage into the stomach (n = 5–6), using a blunt-ended needle. EAI045 was administered orally at dose of 20 mg/kg. Elacridar was administered orally at a dose of 50 mg/kg, 3 h prior to oral EAI045 administration. For the 24- or 4-h experiments, tail vein blood samplings were performed at 5 min, 30 min, 1, 2, 4, and 8 h, or 5 min, 15 min, 30 min, 1, and 2 h time points after oral administration of EAI045, respectively, using microvettes containing heparin. For the 30 min experiments, blood samplings were performed at 5, 10, and 20 min from the tail vein. At the last time point (24 h, 4 h, or 30 min), mice were anesthetized with isoflurane and blood was collected by cardiac puncture. Then, mice were sacrificed by cervical dislocation and brain, liver, spleen, kidneys, lung, small intestine with content (SIWC), and testis were rapidly removed and weighed. Tissues were homogenized on ice in appropriate volumes of 2% (w/v) BSA. Blood samples were centrifuged at 9000× g for 6 min at 4 °C immediately after collection. All samples were stored at −30 °C until analysis.

T1 sequence (C0KKU9 1-1281): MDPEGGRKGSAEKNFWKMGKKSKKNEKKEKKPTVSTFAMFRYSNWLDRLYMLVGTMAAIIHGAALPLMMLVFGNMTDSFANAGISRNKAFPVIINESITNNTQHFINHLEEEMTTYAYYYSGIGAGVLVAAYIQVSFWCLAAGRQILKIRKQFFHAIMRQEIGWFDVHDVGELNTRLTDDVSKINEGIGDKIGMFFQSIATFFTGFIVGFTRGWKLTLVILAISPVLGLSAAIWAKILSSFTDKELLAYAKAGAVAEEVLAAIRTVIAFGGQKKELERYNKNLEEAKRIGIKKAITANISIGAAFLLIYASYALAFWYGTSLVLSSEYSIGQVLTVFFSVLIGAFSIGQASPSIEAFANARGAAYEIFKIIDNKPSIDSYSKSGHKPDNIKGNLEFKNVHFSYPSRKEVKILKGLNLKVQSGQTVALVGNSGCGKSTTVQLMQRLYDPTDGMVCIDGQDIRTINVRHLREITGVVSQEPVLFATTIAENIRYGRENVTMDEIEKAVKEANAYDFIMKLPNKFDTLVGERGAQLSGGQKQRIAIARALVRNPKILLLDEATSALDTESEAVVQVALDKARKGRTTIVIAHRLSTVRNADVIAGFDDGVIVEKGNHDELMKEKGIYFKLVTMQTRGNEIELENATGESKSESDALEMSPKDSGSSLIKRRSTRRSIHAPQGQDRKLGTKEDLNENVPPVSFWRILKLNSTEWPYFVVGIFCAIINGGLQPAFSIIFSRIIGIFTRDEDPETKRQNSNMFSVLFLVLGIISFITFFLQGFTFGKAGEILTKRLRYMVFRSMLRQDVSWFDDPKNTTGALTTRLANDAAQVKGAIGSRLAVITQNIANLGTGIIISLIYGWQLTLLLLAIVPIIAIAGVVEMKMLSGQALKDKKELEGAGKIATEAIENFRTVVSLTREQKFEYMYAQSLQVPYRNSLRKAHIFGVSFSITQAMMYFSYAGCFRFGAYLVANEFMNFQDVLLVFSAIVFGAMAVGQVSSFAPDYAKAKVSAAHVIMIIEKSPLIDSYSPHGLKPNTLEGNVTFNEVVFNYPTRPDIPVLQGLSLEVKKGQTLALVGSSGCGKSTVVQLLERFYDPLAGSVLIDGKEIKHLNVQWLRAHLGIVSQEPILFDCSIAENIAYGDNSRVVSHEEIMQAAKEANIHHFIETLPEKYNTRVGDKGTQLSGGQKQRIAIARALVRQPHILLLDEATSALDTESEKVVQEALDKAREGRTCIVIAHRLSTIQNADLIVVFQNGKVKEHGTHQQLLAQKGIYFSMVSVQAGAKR

O=C(Nc1nccs1)C(c1cc(F)ccc1O)N1Cc2ccccc2C1=O (centres unmarked) [EAI045]
efflux ratio r (relative transport ratio) (endogenous canine ABCB1; parental + zosuquidar 5 μM): 1.1 | efflux ratio r (relative transport ratio) (endogenous canine ABCB1; parental, no inhibitor): 1.7 | transport substrate of endogenous canine ABCB1 (endogenous canine ABCB1; in vitro): moderate transport substrate | kidney-to-plasma ratio, fold change [1]: 1.6 fold | systemic exposure of EAI045 ([1]; po, 20 mg/kg): not changed
